In experiment [1] the target is T1, IL-17A/A (Homo sapiens, UniProt Q16552).
T1 construct: purchased Genscript Z03228
T1 sequence (Q16552 24-155): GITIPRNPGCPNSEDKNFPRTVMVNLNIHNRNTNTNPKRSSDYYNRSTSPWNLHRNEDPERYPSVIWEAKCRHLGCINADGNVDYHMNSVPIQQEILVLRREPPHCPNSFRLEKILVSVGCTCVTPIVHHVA
Put plainly: IL-17A/A HEK-Blue cell assay (SEAP reporter). In kind it is cell-based. Particulars: HEK-Blue IL-17A reporter cells, IL17A/A 5 ng/mL, 20 hours, SEAP read at A630; read-out: HEK-Blue IL17AA (IC50 for IL-17A/A inhibition). The procedure: (§1) The HEK-Blue IL-17A reporter cell line (Fisher #NC 1408637) was used for cell-based IL-17A/A inhibition assays. Cells were grown and prepared for assays according to the manufacturer's instructions. This cell line consists of HEK 293 cells that were designed to expressed IL-17RA, IL-17RC, and the Act1 adapter molecule, the combination of which, when stimulated by IL-17A/A or IL17A/F activates a […] promoter and drives expression of the recombinant Secreted Alkaline Phosphatase (SEAP) gene. Media from the cells is then added to a development reagent (Quanti-Blue Substrate, Fisher #NC971 1613), and read at A630.
(§2) Compounds were dispensed in DMSO to an empty clear 384-well tissue culture plate in a titration ranging from 10 μM to 27 pM, with DMSO added to every well to a final concentration of […]. Cells were then added to the plate (45 μL/well at a concentration of 280,000 cells/mL). IL17A/A (Genscript #Z03228) or IL17A/F (R&D Systems) was added to the plate to a final concentration of 5 ng/mL and a final well volume of 50 μL. The cells, compound, and IL-17A/A or IL17A/F were then incubated for 20 hours before media was removed for SEAP analysis. The resulting inhibition curve was then analyzed using Dotmatics' integrated 4-parameter fit screening protocol to generate IC50 values.
(§3) Table 2 includes IC50 values for IL-17A/A and IL-17A/F inhibition of selected compounds; with compounds having a IC50 of A<100 nM; B 100-1000 nM; and C>1000 nM.

Experiment [2] addresses T2, IL-17A/F (Homo sapiens, UniProt Q16552+Q96PD4).
T2 construct: purchased R&D Systems
T2 sequence (Q16552 24-155): T1 sequence (Q16552 24-155)
T2 sequence (Q96PD4 31-163): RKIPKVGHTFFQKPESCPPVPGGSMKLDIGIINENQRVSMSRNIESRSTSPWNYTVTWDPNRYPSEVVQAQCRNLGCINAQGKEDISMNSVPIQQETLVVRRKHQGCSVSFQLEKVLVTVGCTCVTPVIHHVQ
As to the kind of experiment: IL-17A/F HEK-Blue cell assay (SEAP reporter). The settings on record: HEK-Blue IL-17A reporter cells, IL17A/F 5 ng/mL, 20 hours, SEAP read at A630; read-out: HEK-Blue IL17AF (IC50 for IL-17A/F inhibition). In kind it is cell-based. As to the method:
as §1, §2, §3

Turning to `CCn1nccc1C(=O)N[C@H](c1cn2nc(CC3C[C@@H](C(F)(F)F)CNC3=O)c(N3CC4CC(C3)O4)nc2n1)[C@H]1CC[C@H](C)CC1` (single isomer, unassigned) [Compound 102], the IC50 in experiment [1] and in experiment [2] was < 100 nM each time.

Turning to `CCn1nccc1C(=O)N[C@H](c1cn2nc(CC3C[C@@H](C(F)(F)F)CNC3=O)c(N3CC4CC(C3)O4)nc2n1)[C@H]1CC[C@H](C)CC1` (single isomer, unassigned) [Compound 103], the IC50 in experiment [1] was < 100 nM; in experiment [2], 100 to 1000 nM.

Take `CCn1nccc1C(=O)N[C@H](c1cn2nc(CC3C[C@@H](C(F)(F)F)CNC3=O)c(N3CC4CCC(C3)O4)nc2n1)[C@H]1CC[C@H](C)CC1` (single isomer, unassigned) [Compound 104]: the IC50 in experiment [1] and in experiment [2] was < 100 nM in each case.

On to `CCn1nccc1C(=O)N[C@H](c1cn2nc(CC3C[C@@H](C(F)(F)F)CNC3=O)c(N3CC4CCC(C3)O4)nc2n1)[C@H]1CC[C@H](C)CC1` (single isomer, unassigned) [Compound 105], for which the IC50 in experiment [1] was < 100 nM; in experiment [2] it was 100 to 1000 nM.

Take `CCn1nccc1C(=O)N[C@H](c1cn2nc(CC3C[C@@H](C(F)(F)F)CNC3=O)c(N3C[C@H]4C[C@@H]3CO4)nc2n1)[C@H]1CC[C@H](C)CC1` (single isomer, unassigned) [Compound 106]: the values for the IC50 in experiment [1] and in experiment [2] were < 100 nM and > 1000 nM, respectively.

Take `CCn1nccc1C(=O)N[C@H](c1cn2nc(CC3C[C@@H](C(F)(F)F)CNC3=O)c(N3C[C@H]4C[C@@H]3CO4)nc2n1)[C@H]1CC[C@H](C)CC1` (single isomer, unassigned) [Compound 107]: the IC50 in experiment [1] is < 100 nM; in experiment [2], 100 to 1000 nM.

With `CCn1nccc1C(=O)N[C@H](c1cn2nc(CC3C[C@@H](C(F)(F)F)CNC3=O)c(N3C[C@@H]4C[C@H]3CO4)nc2n1)[C@H]1CC[C@H](C)CC1` (single isomer, unassigned) [Compound 108], the IC50 in experiment [1] and in experiment [2] was < 100 nM in each case.

`CCn1nccc1C(=O)N[C@H](c1cn2nc(CC3C[C@@H](C(F)(F)F)CNC3=O)c(N3C[C@@H]4C[C@H]3CO4)nc2n1)[C@H]1CC[C@H](C)CC1` (single isomer, unassigned) [Compound 109]: the IC50 in experiment [1] is < 100 nM; in experiment [2] it was 100 to 1000 nM.

As for `CCn1nccc1C(=O)N[C@H](c1cn2nc(CC3C[C@@H](C(F)(F)F)CNC3=O)c(N3CCOCC3)nc2n1)C(C1CC1)C1CC1` (single isomer, unassigned) [Compound 111], the IC50 in experiment [1] is < 100 nM; in experiment [2], 100 to 1000 nM.

For `CCn1nccc1C(=O)N[C@H](c1cn2nc(CC3C[C@@H](C(F)(F)F)CNC3=O)c(N3CCOCC3)nc2n1)C(C1CC1)C1CC1` (single isomer, unassigned) [Compound 112], the figures for the IC50 in experiment [1] and in experiment [2] were < 100 nM and 100 to 1000 nM, respectively.

On to `O=C(N[C@H](c1cn2nc(CC3C[C@@H](C(F)(F)F)CNC3=O)c(N3CCOCC3)nc2n1)C1CCC(F)(F)CC1)c1conc1C1CC1(F)F` (single isomer, unassigned) [Compound 113], for which the results for the IC50 in experiment [1] and in experiment [2] were < 100 nM and 100 to 1000 nM, respectively.

In the case of `O=C(N[C@H](c1cn2nc(CC3C[C@@H](C(F)(F)F)CNC3=O)c(N3CCOCC3)nc2n1)C1CCC(F)(F)CC1)c1conc1C1CC1(F)F` (single isomer, unassigned) [Compound 114], the IC50 in experiment [1] was < 100 nM; in experiment [2], > 1000 nM.

For `O=C(N[C@H](c1cn2nc(CC3C[C@@H](C(F)(F)F)CNC3=O)c(N3CCOCC3)nc2n1)C1CCC(F)(F)CC1)c1conc1C1CC1(F)F` (single isomer, unassigned) [Compound 115], the values for the IC50 in experiment [1] and in experiment [2] were < 100 nM and > 1000 nM, respectively.

For `O=C(N[C@H](c1cn2nc(CC3C[C@@H](C(F)(F)F)CNC3=O)c(N3CCOCC3)nc2n1)C1CCC(F)(F)CC1)c1conc1C1CC1(F)F` (single isomer, unassigned) [Compound 116], the IC50 in experiment [1] was < 100 nM; in experiment [2] it was > 1000 nM.

Regarding `C[C@H]1CC[C@H]([C@H](NC(=O)C2(F)CC2)c2cn3nc(CC4C[C@@H](C(F)(F)F)CNC4=O)c(N4CCOCC4)nc3n2)CC1` (single isomer, unassigned) [Compound 118], the IC50 in experiment [1] was 100 to 1000 nM; in experiment [2], > 1000 nM.

For the compound `C[C@H]1CC[C@H]([C@H](NC(=O)C2(F)CC2)c2cn3nc(CC4C[C@@H](C(F)(F)F)CNC4=O)c(N4CCOCC4)nc3n2)CC1` (single isomer, unassigned) [Compound 120], the IC50 was 100 to 1000 nM in experiment [1] and > 1000 nM in experiment [2].

Regarding `CCn1nccc1C(=O)N[C@H](c1cn2nc(CC3C[C@@H](C(F)(F)F)CNC3=O)c(N3CCO[C@H](C)C3)nc2n1)[C@@H]1CCCC(F)(F)C1` (single isomer, unassigned) [Compound 124], the IC50 in experiment [1] was < 100 nM; in experiment [2], 100 to 1000 nM.

Turning to `O=C(N[C@H](c1cn2nc(C[C@H]3C[C@@H](C(F)(F)F)CNC3=O)c(C3CCCOC3)nc2n1)[C@H]1CCCC(F)(F)C1)c1nonc1C1CC1` (single isomer, unassigned) [Compound 125], the results for the IC50 in experiment [1] and in experiment [2] were < 100 nM and > 1000 nM, respectively.

As for `O=C(N[C@H](c1cn2nc(C[C@H]3C[C@@H](C(F)(F)F)CNC3=O)c(C3CCCOC3)nc2n1)[C@H]1CCCC(F)(F)C1)c1nonc1C1CC1` (single isomer, unassigned) [Compound 126], the IC50 was < 100 nM in experiment [1] and 100 to 1000 nM in experiment [2].

Take `CC(C)n1nccc1C(=O)N[C@H](c1cn2nc(CC3C[C@@H](C(F)(F)F)CNC3=O)c(N3CC4CC(C3)O4)nc2n1)[C@H]1CCCC(F)(F)C1` (single isomer, unassigned) [Compound 128]: the IC50 was < 100 nM in experiment [1] and 100 to 1000 nM in experiment [2].

Consider `CC(C)n1nccc1C(=O)N[C@H](c1cn2nc(CC3C[C@@H](C(F)(F)F)CNC3=O)c(N3CC4CC(C3)O4)nc2n1)[C@@H]1CCCC(F)(F)C1` (single isomer, unassigned) [Compound 129], for which the IC50 in experiment [1] is < 100 nM; in experiment [2] it was 100 to 1000 nM.

Turning to `CC(C)n1nccc1C(=O)N[C@H](c1cn2nc(CC3C[C@@H](C(F)(F)F)CNC3=O)c(N3CC4CC(C3)O4)nc2n1)[C@H]1CCCC(F)(F)C1` (single isomer, unassigned) [Compound 130], the IC50 in experiment [1] is < 100 nM; in experiment [2], > 1000 nM.

As for `CC(C)n1nccc1C(=O)N[C@H](c1cn2nc(CC3C[C@@H](C(F)(F)F)CNC3=O)c(N3CC4CC(C3)O4)nc2n1)[C@@H]1CCCC(F)(F)C1` (single isomer, unassigned) [Compound 131], the values for the IC50 in experiment [1] and in experiment [2] were < 100 nM and > 1000 nM, respectively.

Regarding `CC(C)n1nccc1C(=O)N[C@H](c1cn2nc(C[C@H]3C[C@@H](C(F)(F)F)CNC3=O)c(C3CCOC3)nc2n1)C1CCC(F)(F)CC1` (single isomer, unassigned) [Compound 132], the figures for the IC50 in experiment [1] and in experiment [2] were < 100 nM and 100 to 1000 nM, respectively.

For the compound `CC(C)n1nccc1C(=O)N[C@H](c1cn2nc(C[C@H]3C[C@@H](C(F)(F)F)CNC3=O)c(C3CCOC3)nc2n1)C1CCC(F)(F)CC1` (single isomer, unassigned) [Compound 133], the IC50 in experiment [1] is < 100 nM; in experiment [2], 100 to 1000 nM.

As for `O=C(N[C@H](c1cn2nc(C[C@H]3C[C@@H](C(F)(F)F)CNC3=O)c(C3CCOC3)nc2n1)C1CCC(F)(F)CC1)c1nonc1C1CC1` (single isomer, unassigned) [Compound 134], the IC50 in experiment [1] is < 100 nM; in experiment [2], > 1000 nM.

Values taken from US20260226068A1, “IMIDAZOTRIAZINE IL-17A MODULATORS AND USES THEREOF” (DICE ALPHA, INC., priority 2023, published 2026).
